Assay results as given in BindingDB's records for doi:10.1016/j.bmc.2021.116291 (Fudan University School of Pharmacy, 2021).

The compounds below were run against Glucagon-like peptide 1 receptor (Homo sapiens, UniProt P43220) (assay: Binding affinity to GLP1R (unknown origin) assessed as dissociation rate constant by surface plasmon resonance analysis).
Chain of Glucagon-like peptide 1 receptor (P43220 whole entry): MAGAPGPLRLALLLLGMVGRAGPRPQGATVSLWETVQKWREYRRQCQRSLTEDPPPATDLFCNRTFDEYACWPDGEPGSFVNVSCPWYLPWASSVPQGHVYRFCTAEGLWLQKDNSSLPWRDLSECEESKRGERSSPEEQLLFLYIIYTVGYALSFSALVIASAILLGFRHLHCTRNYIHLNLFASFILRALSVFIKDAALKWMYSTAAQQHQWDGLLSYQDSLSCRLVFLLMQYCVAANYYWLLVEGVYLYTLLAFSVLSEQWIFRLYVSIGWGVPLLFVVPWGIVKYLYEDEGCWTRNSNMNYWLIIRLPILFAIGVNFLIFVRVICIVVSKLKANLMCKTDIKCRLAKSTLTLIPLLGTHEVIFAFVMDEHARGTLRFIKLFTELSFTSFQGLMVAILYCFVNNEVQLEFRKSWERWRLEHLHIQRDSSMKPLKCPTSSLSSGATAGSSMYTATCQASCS

| koff | SMILES |
| --- | --- |
| 0.0065 s⁻¹ | CCCCCCCCCCCC(=O)N[C@@H](CCC(=O)NCCCC[C@H](NC(=O)CC[C@H](NC(=O)CCCCCCCCCCC)C(=O)O)C(=O)NCCOCCOCC(=O)O)C(=O)O |
| 0.00857 s⁻¹ | CCCCCCCCCCCC(=O)N[C@@H](CCC(=O)NCCCC[C@H](NC(=O)CC[C@H](NC(=O)CCCCCCCCCCC)C(=O)O)C(=O)NCCOCCOCC(=O)NCCOCCOCC(=O)O)C(=O)O |
| 0.0237 s⁻¹ | CCCCCCCCCCCC(=O)N[C@@H](CCC(=O)NCCCC[C@H](NC(=O)CC[C@H](NC(=O)CCCCCCCCCCC)C(=O)O)C(=O)NCCOCCOCC(=O)NCCOCCOCC(=O)NCCOCCOCC(=O)O)C(=O)O |
